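Interpolation was linear, between the two tested concentrations surrounding the appropriate level; five concentrations were tested over 48 hours in 96-well plates. Abbreviation: GI50, concentration required for 50% inhibition of growth. The concentration for full growth arrest is given as TGI.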
Tests used:
Experiment in all cases: growth of human tumour cells (NCI), 48 h
CCRF-CEM leukemia = system: CCRF-CEM leukemia
SNB-75 CNS = system: SNB-75 CNS
MOLT-4 leukemia = system: MOLT-4 leukemia
CAKI-1 renal = system: CAKI-1 renal
SF-539 CNS = system: SF-539 CNS
ACHN renal = system: ACHN renal
HL-60(TB) leukemia = system: HL-60(TB) leukemia
U251 CNS = system: U251 CNS
HCC-2998 colon = system: HCC-2998 colon
M14 melanoma = system: M14 melanoma
IGROV1 ovarian = system: IGROV1 ovarian
NCI-H522 lung = system: NCI-H522 lung
HOP-62 NSCLC = system: HOP-62 NSCLC
TK-10 renal = system: TK-10 renal
COLO 205 colon = system: COLO 205 colon
SR leukemia = system: SR leukemia
UACC-62 melanoma = system: UACC-62 melanoma
OVCAR-4 ovarian = system: OVCAR-4 ovarian
KM12 colon = system: KM12 colon
MALME-3M melanoma = system: MALME-3M melanoma
PC-3 prostate = system: PC-3 prostate
HOP-92 NSCLC = system: HOP-92 NSCLC
MDA-MB-435 = system: MDA-MB-435
UACC-257 melanoma = system: UACC-257 melanoma
NCI-H460 lung = system: NCI-H460 lung
HT29 colon = system: HT29 colon
OVCAR-5 ovarian = system: OVCAR-5 ovarian
HCT-15 colon = system: HCT-15 colon
T-47D breast = system: T-47D breast
HCT-116 colon = system: HCT-116 colon
MDA-MB-231 breast = system: MDA-MB-231 breast
RPMI-8226 leukemia = system: RPMI-8226 leukemia
SN12C renal = system: SN12C renal
NCI-H226 lung = system: NCI-H226 lung
RXF 393 renal = system: RXF 393 renal
NCI/ADR-RES ovarian = system: NCI/ADR-RES ovarian
SF-295 CNS = system: SF-295 CNS
786-0 renal = system: 786-0 renal
A498 renal = system: A498 renal
EKVX NSCLC = system: EKVX NSCLC
SK-MEL-28 melanoma = system: SK-MEL-28 melanoma
MCF7 breast = system: MCF7 breast
HS 578T breast = system: HS 578T breast
DU-145 prostate = system: DU-145 prostate
OVCAR-3 ovarian = system: OVCAR-3 ovarian
LOX IMVI melanoma = system: LOX IMVI melanoma
SK-MEL-5 melanoma = system: SK-MEL-5 melanoma
SK-OV-3 ovarian = system: SK-OV-3 ovarian
SNB-19 CNS = system: SNB-19 CNS
NCI-H23 lung = system: NCI-H23 lung
BT-549 breast = system: BT-549 breast
K-562 leukemia = system: K-562 leukemia
SW-620 colon = system: SW-620 colon
SK-MEL-2 melanoma = system: SK-MEL-2 melanoma
OVCAR-8 ovarian = system: OVCAR-8 ovarian
SF-268 CNS = system: SF-268 CNS
UO-31 renal = system: UO-31 renal
A549 NSCLC = system: A549 NSCLC

Which GI50 (CCRF-CEM leukemia) does the source give for `COc1ccc(C(=O)Cn2c(C(=O)c3ccc(OC)cc3)nc3ccccc32)cc1` here?
Its GI50 is 1.69 µM.

What about the TGI (CCRF-CEM leukemia) of the same compound?
The TGI was greater than 42.8 µM.

What about the GI50 (SNB-75 CNS) of the same compound?
Its GI50 is 2.16 µM.

What about the TGI (SNB-75 CNS) of the same compound?
The TGI was greater than 54.3 µM.

What about the GI50 (MOLT-4 leukemia) of the same compound?
The GI50 was 0.861 µM.

And the TGI (MOLT-4 leukemia)?
The TGI was greater than 100 µM.

What about the GI50 (CAKI-1 renal) of the same compound?
Its GI50 is 1.94 µM.

What about the TGI (CAKI-1 renal) of the same compound?
Its TGI is greater than 100 µM.

What about the GI50 (SF-539 CNS) of the same compound?
The GI50 was 2.8 µM.

And the TGI (SF-539 CNS)?
The TGI was greater than 100 µM.

What about the GI50 (ACHN renal) of the same compound?
Its GI50 is 6.58 µM.

And the TGI (ACHN renal)?
Its TGI is greater than 100 µM.

What about the GI50 (HL-60(TB) leukemia) of the same compound?
The GI50 was 0.436 µM.

And the TGI (HL-60(TB) leukemia)?
The TGI was 10.8 µM.

What about the GI50 (U251 CNS) of the same compound?
Its GI50 is 3.16 µM.

What about the TGI (U251 CNS) of the same compound?
Its TGI is greater than 100 µM.

What about the GI50 (HCC-2998 colon) of the same compound?
Its GI50 is 5.64 µM.

And the TGI (HCC-2998 colon)?
The TGI was greater than 100 µM.

What about the GI50 (M14 melanoma) of the same compound?
The GI50 was 1.59 µM.

And the TGI (M14 melanoma)?
Its TGI is greater than 100 µM.

What about the GI50 (IGROV1 ovarian) of the same compound?
The GI50 was 5.09 µM.

And the TGI (IGROV1 ovarian)?
The TGI was greater than 100 µM.

And the GI50 (NCI-H522 lung)?
Its GI50 is 2.19 µM.

And the TGI (NCI-H522 lung)?
Its TGI is greater than 100 µM.

What about the GI50 (HOP-62 NSCLC) of the same compound?
Its GI50 is 5.46 µM.

What about the TGI (HOP-62 NSCLC) of the same compound?
The TGI was greater than 100 µM.

And the GI50 (TK-10 renal)?
Its GI50 is 4.8 µM.

And the TGI (TK-10 renal)?
Its TGI is greater than 100 µM.

And the GI50 (COLO 205 colon)?
The GI50 was 2.38 µM.

And the TGI (COLO 205 colon)?
Its TGI is 8.21 µM.

And the GI50 (SR leukemia)?
The GI50 was 0.557 µM.

And the GI50 (UACC-62 melanoma)?
The GI50 was 3.47 µM.

What about the TGI (UACC-62 melanoma) of the same compound?
The TGI was greater than 100 µM.

What about the GI50 (OVCAR-4 ovarian) of the same compound?
Its GI50 is 5.8 µM.

And the TGI (OVCAR-4 ovarian)?
Its TGI is greater than 100 µM.

What about the GI50 (KM12 colon) of the same compound?
The GI50 was 1.16 µM.

And the TGI (KM12 colon)?
The TGI was greater than 100 µM.

And the GI50 (MALME-3M melanoma)?
Its GI50 is 2.91 µM.

What about the TGI (MALME-3M melanoma) of the same compound?
The TGI was greater than 100 µM.

And the GI50 (PC-3 prostate)?
Its GI50 is 2.43 µM.

And the TGI (PC-3 prostate)?
The TGI was greater than 100 µM.

What about the GI50 (HOP-92 NSCLC) of the same compound?
The GI50 was greater than 100 µM.

What about the TGI (HOP-92 NSCLC) of the same compound?
The TGI was greater than 100 µM.

And the GI50 (MDA-MB-435)?
The GI50 was 0.284 µM.

And the TGI (MDA-MB-435)?
The TGI was greater than 34.4 µM.

And the GI50 (UACC-257 melanoma)?
The GI50 was 53 µM.

What about the TGI (UACC-257 melanoma) of the same compound?
The TGI was greater than 100 µM.

What about the GI50 (NCI-H460 lung) of the same compound?
Its GI50 is 3.73 µM.

And the TGI (NCI-H460 lung)?
Its TGI is greater than 100 µM.

And the GI50 (HT29 colon)?
The GI50 was 0.576 µM.

What about the TGI (HT29 colon) of the same compound?
Its TGI is greater than 100 µM.

And the GI50 (OVCAR-5 ovarian)?
Its GI50 is greater than 25.1 µM.

And the TGI (OVCAR-5 ovarian)?
Its TGI is greater than 100 µM.

And the GI50 (HCT-15 colon)?
The GI50 was 1.21 µM.

And the TGI (HCT-15 colon)?
Its TGI is greater than 100 µM.

And the GI50 (T-47D breast)?
Its GI50 is 3.39 µM.

And the TGI (T-47D breast)?
The TGI was greater than 100 µM.

And the GI50 (HCT-116 colon)?
The GI50 was 2.36 µM.

And the TGI (HCT-116 colon)?
The TGI was greater than 100 µM.

And the GI50 (MDA-MB-231 breast)?
Its GI50 is 9.23 µM.

And the TGI (MDA-MB-231 breast)?
The TGI was greater than 100 µM.

What about the GI50 (RPMI-8226 leukemia) of the same compound?
Its GI50 is 1.52 µM.

And the TGI (RPMI-8226 leukemia)?
Its TGI is 8.28 µM.

And the GI50 (SN12C renal)?
The GI50 was greater than 92.9 µM.

And the TGI (SN12C renal)?
The TGI was greater than 100 µM.

And the GI50 (NCI-H226 lung)?
The GI50 was greater than 28.5 µM.

What about the TGI (NCI-H226 lung) of the same compound?
Its TGI is greater than 100 µM.

And the GI50 (RXF 393 renal)?
Its GI50 is 2.07 µM.

And the TGI (RXF 393 renal)?
The TGI was greater than 23.2 µM.

What about the GI50 (NCI/ADR-RES ovarian) of the same compound?
The GI50 was 0.671 µM.

And the TGI (NCI/ADR-RES ovarian)?
The TGI was 4.06 µM.

What about the GI50 (SF-295 CNS) of the same compound?
Its GI50 is 2.08 µM.

And the TGI (SF-295 CNS)?
Its TGI is greater than 100 µM.

What about the GI50 (786-0 renal) of the same compound?
The GI50 was 4.54 µM.

What about the TGI (786-0 renal) of the same compound?
Its TGI is greater than 100 µM.

And the GI50 (A498 renal)?
The GI50 was 1.64 µM.

And the TGI (A498 renal)?
The TGI was greater than 100 µM.

And the GI50 (EKVX NSCLC)?
Its GI50 is 18.9 µM.

What about the TGI (EKVX NSCLC) of the same compound?
The TGI was greater than 100 µM.

What about the GI50 (SK-MEL-28 melanoma) of the same compound?
The GI50 was 3 µM.

What about the TGI (SK-MEL-28 melanoma) of the same compound?
Its TGI is greater than 100 µM.

And the GI50 (MCF7 breast)?
Its GI50 is 1.36 µM.

What about the TGI (MCF7 breast) of the same compound?
Its TGI is greater than 100 µM.

What about the GI50 (HS 578T breast) of the same compound?
Its GI50 is 2.14 µM.

What about the TGI (HS 578T breast) of the same compound?
Its TGI is greater than 28.5 µM.

What about the GI50 (DU-145 prostate) of the same compound?
Its GI50 is 4.31 µM.

And the TGI (DU-145 prostate)?
The TGI was greater than 100 µM.

What about the GI50 (OVCAR-3 ovarian) of the same compound?
Its GI50 is 2.03 µM.

And the TGI (OVCAR-3 ovarian)?
Its TGI is greater than 100 µM.

What about the GI50 (LOX IMVI melanoma) of the same compound?
The GI50 was 6.42 µM.

What about the TGI (LOX IMVI melanoma) of the same compound?
The TGI was greater than 100 µM.

What about the GI50 (SK-MEL-5 melanoma) of the same compound?
Its GI50 is 2.36 µM.

And the TGI (SK-MEL-5 melanoma)?
The TGI was greater than 27.1 µM.

What about the GI50 (SK-OV-3 ovarian) of the same compound?
Its GI50 is 2.96 µM.

What about the TGI (SK-OV-3 ovarian) of the same compound?
The TGI was greater than 100 µM.

What about the GI50 (SNB-19 CNS) of the same compound?
Its GI50 is 4.37 µM.

And the TGI (SNB-19 CNS)?
Its TGI is greater than 100 µM.

And the GI50 (NCI-H23 lung)?
The GI50 was 6.15 µM.

What about the TGI (NCI-H23 lung) of the same compound?
Its TGI is greater than 100 µM.

And the GI50 (BT-549 breast)?
Its GI50 is 3.52 µM.

And the TGI (BT-549 breast)?
The TGI was greater than 100 µM.

And the GI50 (K-562 leukemia)?
The GI50 was 0.483 µM.

And the TGI (K-562 leukemia)?
The TGI was greater than 100 µM.

And the GI50 (SW-620 colon)?
Its GI50 is 0.816 µM.

What about the TGI (SW-620 colon) of the same compound?
Its TGI is greater than 100 µM.

What about the GI50 (SK-MEL-2 melanoma) of the same compound?
Its GI50 is 12.6 µM.

What about the TGI (SK-MEL-2 melanoma) of the same compound?
Its TGI is greater than 100 µM.

And the GI50 (OVCAR-8 ovarian)?
The GI50 was 5.85 µM.

And the TGI (OVCAR-8 ovarian)?
Its TGI is greater than 100 µM.

And the GI50 (SF-268 CNS)?
The GI50 was 6.25 µM.

And the TGI (SF-268 CNS)?
The TGI was greater than 100 µM.

What about the GI50 (UO-31 renal) of the same compound?
The GI50 was 6.27 µM.

What about the TGI (UO-31 renal) of the same compound?
The TGI was greater than 100 µM.

And the GI50 (A549 NSCLC)?
The GI50 was 5.47 µM.

What about the TGI (A549 NSCLC) of the same compound?
The TGI was greater than 100 µM.

From PubChem BioAssay (NCI)
